Results published in PubChem BioAssay (NCI).
“And” between values parts separate entries of the source, which are not always exact repeats. Equal values may be shown once.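 The compound was tested at five concentrations on cells cultured in 96-well plates, with a 48-hour exposure period. GI50 marks 50% less growth. Definition used: TGI = concentration required for complete inhibition of growth.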

The molecules below were run on OVCAR-5 ovarian (assay: NCI anticancer screen, dose series, 48 h).

`NCCCCc1cc(O)c2c(c1O)C(=O)c1ccccc1C2=O` and `NCCSC(c1ccccc1)c1ccccc1` are within 1.5-fold of each other in TGI: 28.5 µM for the first, 34 µM for the second.

First: Cc1ccccc1C(=O)N/N=C/c1ccc(Sc2nccn2C)c([N+](=O)[O-])c1
Second: COc1ccc2c(c1)[nH]c1c(/C=C/c3ccccc3)nccc12
The TGI of the first is higher: > 100 µM for the first, 30.5 µM for the second.

`CC(=O)C1=C(C)N(c2ccc(C)cc2)C2(O)C=CC(=O)C3C(=O)N(c4ccccc4)C(=O)C132` (stereo unspecified) and `[N-]=[N+]=CC(=O)c1ccccc1C#CCCc1ccccc1` cannot be ordered by TGI: > 100 µM for the first, > 100 µM for the second.

First: Clc1cc2c(cc1Cl)CC(NCCN1CCCC1)CC2 (stereo unspecified)
Second: C[C@H](CCC(=O)O)[C@H]1CC[C@@]2(C)[C@@H]3C(=O)C[C@H]4C(C)(C)[C@@H](O)CC[C@]4(C)[C@H]3C(=O)C[C@]12C
The TGI of the first is lower: 29.6 µM for the first, > 100 µM for the second.

First: CCN(CC(=O)O)C(=O)c1cccnc1
Second: COc1nc(C#CC2(O)CCCCC2)nc(OC)n1
The TGI of the first is higher: > 100 µM for the first, 25.4 µM for the second.

Molecule `CCCCCCCCC/C=C/C=C/C(=O)NCC(=O)NC1C(O)C(O)C(Nc2ncnc3nc[nH]c23)OC1C(O)CO` (stereo unspecified) has a GI50 of 0.00137 µM.

For `CCCCCCCCC/C=C/C=C/C(=O)NCC(=O)NC1C(O)C(O)C(Nc2ncnc3nc[nH]c23)OC1C(O)CO` (stereo unspecified), the TGI was 0.0182 µM and 0.0671 µM.

The molecules below were run on RXF 393 renal (assay: NCI anticancer screen, dose series, 48 h).

First: CCOC(=O)C1=NN(c2ccc(C)cc2)C2=CC(C)=NN(C)C(=S)N21
Second: CC(=O)C1=C(C)N(c2ccc(C)cc2)C2(O)C=CC(=O)C3C(=O)N(c4ccccc4)C(=O)C132 (stereo unspecified)
The TGI of the first is 1.8-fold lower: 30.1 µM for the first, 54.3 µM for the second.

`O=C(c1cccs1)N(C(=S)OC12CC3CC(CC(C3)C1)C2)c1ccccc1` and `CCC1CN(C(=O)c2ccccc2)C(Cc2c[nH]c3ccccc23)C(=O)C1CC(=O)OC` (stereo unspecified) cannot be ordered by TGI: > 100 µM for the first, > 100 µM for the second.

First: C(=N\NC1=NCCN1)/c1ccc(-c2cn3cc(/C=N/NC4=NCCN4)ccc3n2)cc1
Second: CCn1c(-c2ccc(N=NNc3ccc(-c4n[nH]c(=S)n4CC)cc3)cc2)n[nH]c1=S
The TGI of the first is higher: > 100 µM for the first, 11.8 µM for the second.

Going from `CC1CC[C@@]2(OC1)OC1C[C@H]3[C@@H]4CC=C5CC(OC6OC(CO)C(OC7OC(CO)C(O)C(OC8OCC(O)C(O)C8O)C7OC7OC(CO)C(O)C(O)C7O)C(O)C6O)CCC5(C)[C@H]4CCC3(C)C1[C@@H]2C` (stereo partly specified) to `C[C@H](CCC(=O)O)[C@H]1CC[C@@]2(C)[C@@H]3C(=O)C[C@H]4C(C)(C)[C@@H](O)CC[C@]4(C)[C@H]3C(=O)C[C@]12C`, the TGI rises from 9.43 µM to > 100 µM.

Compared with `Nc1ccccc1S(=O)(=O)c1ccccc1`, `O=c1cccccc1[O-].O=c1cccccc1[O-].[O]=[U+2]=[O]` is lower in TGI: > 100 µM for the first, 41.2 µM for the second.

Going from `Cc1c(N2C(=O)CS(=O)(=O)C2c2cccc(Oc3ccccc3)c2)c(=O)n(-c2ccccc2)n1C` (stereo unspecified) to `O=C(C[n+]1ccc2ccccc2c1)c1ccc2ccc3ccccc3c2c1`, the TGI falls from 79.3 µM to 16.3 µM (4.9-fold).

Going from `COc1cc2c(ccc3c4cc(OC)c(OC)cc4c[n+](C)c23)cc1O` to `COc1ccc(C(=O)/C=C/c2cccc([N+](=O)[O-])c2)c(OC)c1`, the TGI falls from > 75 µM to 2.36 µM.

First: CNC(=O)OCc1c(CO)nc(SC)n1C
Second: CCOC(=O)C(NC(=O)c1ccco1)(Nc1nc2ccc(OCC)cc2s1)C(F)(F)F (stereo unspecified)
The TGI of the first is higher: > 100 µM for the first, 30.9 µM for the second.

Compared with `CN(C)CC(CC1=C(CC(CN(C)C)N(C)C)CCC1)N(C)C` (stereo unspecified), `COc1nc(C#CC2(O)CCCCC2)nc(OC)n1` is lower in TGI: > 100 µM for the first, 27 µM for the second.

`NC(=O)c1c(NC(=O)c2ccccn2)sc2c1CCC(=O)C2` and `Cc1ccccc1C(=O)N/N=C/c1ccc(Sc2nccn2C)c([N+](=O)[O-])c1` cannot be ordered by TGI: > 100 µM for the first, > 100 µM for the second.

First: CCC(C)C1=C(OC(C)=O)[N+]2([O-])Oc3ccc(-c4c(OC(C)=O)c(OC(C)=O)c(-c5ccc(OC(C)=O)cc5)c(OC(C)=O)c4OC(C)=O)cc3OC2(C(C)CC)C(=O)N1OC(C)=O (stereo unspecified)
Second: NCCCCc1cc(O)c2c(c1O)C(=O)c1ccccc1C2=O
The TGI of the first is higher: > 50 µM for the first, 27.9 µM for the second.

`O=C(O)C1C2CCC(O2)C1C(=O)Nc1cccc2cccnc12` (stereo unspecified) and `CCN(CC(=O)O)C(=O)c1cccnc1` cannot be ordered by TGI: > 100 µM for the first, > 100 µM for the second.

First: COc1cccc2c1Cc1cc(-c3ccccc3)[n+](C)n1-2
Second: COc1ccc2c(c1)[nH]c1c(/C=C/c3ccccc3)nccc12
The TGI of the first is 1.9-fold higher: 73.6 µM for the first, 38 µM for the second.

Compared with `O=C(OCN1C(=O)C2C3C=CC(C2C1=O)C1C2C(=O)N(COC(=O)C4CCCN4)C(=O)C2C31)C1CCCN1` (stereo unspecified), `CCCCCCCCC/C=C/C=C/C(=O)NCC(=O)NC1C(O)C(O)C(Nc2ncnc3nc[nH]c23)OC1C(O)CO` (stereo unspecified) is lower in TGI: > 100 µM for the first, 0.0163 µM for the second.

Going from `[N-]=[N+]=CC(=O)c1ccccc1C#CCCc1ccccc1` to `NCCSC(c1ccccc1)c1ccccc1`, the TGI falls from > 100 µM to 39.8 µM.

First: NC(=O)c1c(NC(=O)c2ccccn2)sc2c1CCC(=O)C2
Second: COc1ccc(C(=O)/C=C/c2cccc([N+](=O)[O-])c2)c(OC)c1
The GI50 of the first is 3.1-fold higher: 3.53 µM for the first, 1.13 µM for the second.

The molecules below were run on M14 melanoma (assay: NCI anticancer screen, dose series, 48 h).

`CCOC(=O)C1=NN(c2ccc(C)cc2)C2=CC(C)=NN(C)C(=S)N21` and `CC(=O)C1=C(C)N(c2ccc(C)cc2)C2(O)C=CC(=O)C3C(=O)N(c4ccccc4)C(=O)C132` (stereo unspecified) cannot be ordered by TGI: > 100 µM for the first, > 100 µM for the second.

Going from `O=C(c1cccs1)N(C(=S)OC12CC3CC(CC(C3)C1)C2)c1ccccc1` to `CCC1CN(C(=O)c2ccccc2)C(Cc2c[nH]c3ccccc23)C(=O)C1CC(=O)OC` (stereo unspecified), the TGI rises from 43 µM to > 100 µM.

Going from `C(=N\NC1=NCCN1)/c1ccc(-c2cn3cc(/C=N/NC4=NCCN4)ccc3n2)cc1` to `CCn1c(-c2ccc(N=NNc3ccc(-c4n[nH]c(=S)n4CC)cc3)cc2)n[nH]c1=S`, the TGI falls from > 62.6 µM to 8.2 µM.

Compared with `CC1CC[C@@]2(OC1)OC1C[C@H]3[C@@H]4CC=C5CC(OC6OC(CO)C(OC7OC(CO)C(O)C(OC8OCC(O)C(O)C8O)C7OC7OC(CO)C(O)C(O)C7O)C(O)C6O)CCC5(C)[C@H]4CCC3(C)C1[C@@H]2C` (stereo partly specified), `CC12CC3OC(=O)C1COC14OC5(C2C1=O)C(O)(CCC1C4CC(O)C2(O)CC=CC(=O)C12C)C(=O)OC35C` (stereo unspecified) is higher in TGI: 17.1 µM for the first, > 100 µM for the second.

Compared with `Nc1ccccc1S(=O)(=O)c1ccccc1`, `O=c1cccccc1[O-].O=c1cccccc1[O-].[O]=[U+2]=[O]` is lower in TGI: > 100 µM for the first, 73.2 µM for the second.

First: Cc1c(N2C(=O)CS(=O)(=O)C2c2cccc(Oc3ccccc3)c2)c(=O)n(-c2ccccc2)n1C (stereo unspecified)
Second: O=C(C[n+]1ccc2ccccc2c1)c1ccc2ccc3ccccc3c2c1
The TGI of the first is higher: > 100 µM for the first, 10.6 µM for the second.

`NC(=O)c1c(NC(=O)c2ccccn2)sc2c1CCC(=O)C2` and `Cc1ccccc1C(=O)N/N=C/c1ccc(Sc2nccn2C)c([N+](=O)[O-])c1` cannot be ordered by TGI: > 100 µM for the first, > 100 µM for the second.

First: COc1ccc(C(=O)/C=C/c2cccc([N+](=O)[O-])c2)c(OC)c1
Second: COc1ccc2c(c1)[nH]c1c(/C=C/c3ccccc3)nccc12
The TGI of the first is higher: > 50 µM for the first, 35.3 µM for the second.

`CCOC(=O)C(NC(=O)c1ccco1)(Nc1nc2ccc(OCC)cc2s1)C(F)(F)F` (stereo unspecified) and `O=C(O)C1C2CCC(O2)C1C(=O)Nc1cccc2cccnc12` (stereo unspecified) cannot be ordered by TGI: > 100 µM for the first, > 100 µM for the second.

Going from `CCC(C)C1=C(OC(C)=O)[N+]2([O-])Oc3ccc(-c4c(OC(C)=O)c(OC(C)=O)c(-c5ccc(OC(C)=O)cc5)c(OC(C)=O)c4OC(C)=O)cc3OC2(C(C)CC)C(=O)N1OC(C)=O` (stereo unspecified) to `NCCCCc1cc(O)c2c(c1O)C(=O)c1ccccc1C2=O`, the TGI falls from > 50 µM to 33.6 µM.

`COc1cccc2c1Cc1cc(-c3ccccc3)[n+](C)n1-2` and `NCCSC(c1ccccc1)c1ccccc1` are within 1.5-fold of each other in TGI: 24.9 µM for the first, 29.9 µM for the second.

`O=C(OCN1C(=O)C2C3C=CC(C2C1=O)C1C2C(=O)N(COC(=O)C4CCCN4)C(=O)C2C31)C1CCCN1` (stereo unspecified) and `C[C@H](CCC(=O)O)[C@H]1CC[C@@]2(C)[C@@H]3C(=O)C[C@H]4C(C)(C)[C@@H](O)CC[C@]4(C)[C@H]3C(=O)C[C@]12C` cannot be ordered by TGI: > 100 µM for the first, > 100 µM for the second.

Compared with `Clc1cc2c(cc1Cl)CC(NCCN1CCCC1)CC2` (stereo unspecified), `COc1nc(C#CC2(O)CCCCC2)nc(OC)n1` is 1.5-fold higher in TGI: 25.4 µM for the first, 38.3 µM for the second.

`[N-]=[N+]=CC(=O)c1ccccc1C#CCCc1ccccc1` and `CCN(CC(=O)O)C(=O)c1cccnc1` cannot be ordered by TGI: > 100 µM for the first, > 100 µM for the second.

Going from `NC(=O)c1c(NC(=O)c2ccccn2)sc2c1CCC(=O)C2` to `COc1ccc(C(=O)/C=C/c2cccc([N+](=O)[O-])c2)c(OC)c1`, the GI50 falls from 3.88 µM to 1.62 µM (2.4-fold).

In the case of `CCCCCCCCC/C=C/C=C/C(=O)NCC(=O)NC1C(O)C(O)C(Nc2ncnc3nc[nH]c23)OC1C(O)CO` (stereo unspecified), the GI50 is reported as 0.0248 µM.

With `CCCCCCCCC/C=C/C=C/C(=O)NCC(=O)NC1C(O)C(O)C(Nc2ncnc3nc[nH]c23)OC1C(O)CO` (stereo unspecified) the TGI was 0.143 µM and 1.22 µM.
